Results: patent US10323018B2 (Millennium Pharmaceuticals, Inc., priority 2015, dated 2019)
Like-named read-outs stand apart in the source and are kept apart here.

Legend:
[1] = biological target: hNAMPT protein (Homo sapiens (Human), UniProt P43490); assay: NAMPT enzyme assay (TR-FRET/HTRF with BodiPY ligand); assay type: binding; conditions: for inhibition at 1 µM: read-out: Percent Inhibition; for IC50: NAMPT inhibition, IC50 range class
Source text: As discussed above, the invention provides compounds that are useful as inhibitors of the enzyme NAMPT. The NAMPT inhibition of a compound of the invention can be measured using a variety of methods known in the art. For example, the ability of a compound of the invention to inhibit NAMPT enzyme activity can be measured using a homogeneous time resolved fluorescence (HTRF) assay using hNAMPT protein and anti 6His-Tb in buffer treated with a compound of the invention (or control e.g., DMSO) and BodiPY ligand. The TR-FRET signal can be measured using a high throughput microplate reader (e.g., Pherastar). Excitation can be carried out at 320 nm. The percent inhibition value at a single concentration of compound of the invention can be calculated relative to a control treated sample. A concentration response curve can be generated for each compound of the invention and the curve fitted to generate an IC50 value. […] To measure the inhibition of NAMPT activity hNAMPT protein stock and anti 6His-Tb (Cisbio; Cat. No. […]TLB) is diluted to 3× final concentration with assay buffer (50 mM Tris-HCl (pH 7.5), 1 mM DTT, 100 mM NaCl, 10 mM MgCl2, 0.005% Tween 20). To this solution is added a test compound or vehicle control (DMSO) and BodiPY ligand (structure below). The plate is shaken for 1-2 min sealed and incubated for 1 h at rt in the dark. The TR-FRET signal is measured using BMG Pherastar (Lanthascreen protocol on BMG Pherastar). Excitation was carried out at 320 nm, and the ratio of emission of BodiPY (520 nm) to terbium (486 nm) was determined. Concentration response curves are generated by calculating the excitation increase in test compound-treated samples relative to DMSO-treated controls. For the assay method described above, test compound percent inhibition values at a single concentration are calculated relative to control (DMSO) treated samples. Compound concentration response curves are fitted to generate IC50 values from those curves. One skilled in the art will appreciate that these values generated either as percentage inhibition at a single concentration or IC50 values are subject to experimental variation.

[2] = test system: PC3 cells; assay: PC3 growth inhibition (Cell-titer glo, 72 hours); assay type: cell-based; conditions: Homo sapiens, PC-3, 72 h, read-out: Percent Viability, PC3 cells, compound concentration 1.667 μM, 72 hours
Procedure: The invention also provides compounds that inhibit cell growth. The ability of a compound of the invention to inhibit the growth of cells can be measured using a variety of methods known in the art. For example, the ability of a compound of the invention to inhibit the growth of PC3 cells can be measured. PC3 cells can be plated and incubated overnight under CO2. For each measurement, a compound of the invention (or vehicle e.g., DMSO) can be diluted with AIM serum free medium and added to the cell plate. The cell plate can then be incubated for 72 h under CO2. Cell-titer glo solution can be added and the plates can be incubated protected from light and the amount of luminescences can be measured. Concentration response curves can be generated by calculating the luminescence increase in test compound treated samples relative to DMSO-treated controls. Percentage remaining viability values at a single concentration can be measured. Growth inhibition (GI50) or cell viability (LD50) values can be determined from thoses curves. In one embodiment, compounds of the invention have a percent viability in PC3 line @ 1.667 uM of <1%. In one embodiment, compounds of the invention have a percent viability in PC3 line @ 1.667 uM of <2%. In one embodiment, compounds of the invention have a percent viability in PC3 line @ 1.667 uM of <3%. In one embodiment, compounds of the invention have a percent viability in PC3 line @ 1.667 uM of <4%. In one embodiment, compounds of the invention have a percent viability in PC3 line @ 1.667 uM of <5%. In one embodiment, compounds of the invention have a percent viability in PC3 line @ 1.667 uM of <10%. In one embodiment, compounds of the invention have a percent viability in PC3 line @ 1.667 uM of <50%.
To measure PC3 growth inhibition, PC3 cells that were maintained in RPMI1640 growth medium (Life Technologies; Cat. No. 11875) at 37° C. under 5% CO2 are trypsinized and diluted at a density of 8×10^4 cells/ml, 25 ul per well of cells and plated in 384-well black tissue culture plate. The cells are incubated overnight at 37° C. under 5% CO2. For each measurement, a test compound or vehicle DMSO control is diluted with AIM serum free medium and added to the cell plate. The cell plate is incubated for 72 hours at 37° C. under 5% CO2. 25 μl Cell-titer glo solution (Promega; Cat. No. G8462) is added and the cell plates are incubated for 10 minutes protected from light. The luminescence is measured. Concentration response curves are generated by calculating the luminescence increase in test compound-treated samples relative to DMSO-treated controls. Percentage remaining viability values at a single concentration, growth inhibition (GI50) or cell viability (LD50) values are determined from those curves. One skilled in the art will appreciate that these values are subject to experimental variation.

[3] = NAMPT inhibition at compound concentration 1 μM

Sequence of hNAMPT protein (P43490 whole entry): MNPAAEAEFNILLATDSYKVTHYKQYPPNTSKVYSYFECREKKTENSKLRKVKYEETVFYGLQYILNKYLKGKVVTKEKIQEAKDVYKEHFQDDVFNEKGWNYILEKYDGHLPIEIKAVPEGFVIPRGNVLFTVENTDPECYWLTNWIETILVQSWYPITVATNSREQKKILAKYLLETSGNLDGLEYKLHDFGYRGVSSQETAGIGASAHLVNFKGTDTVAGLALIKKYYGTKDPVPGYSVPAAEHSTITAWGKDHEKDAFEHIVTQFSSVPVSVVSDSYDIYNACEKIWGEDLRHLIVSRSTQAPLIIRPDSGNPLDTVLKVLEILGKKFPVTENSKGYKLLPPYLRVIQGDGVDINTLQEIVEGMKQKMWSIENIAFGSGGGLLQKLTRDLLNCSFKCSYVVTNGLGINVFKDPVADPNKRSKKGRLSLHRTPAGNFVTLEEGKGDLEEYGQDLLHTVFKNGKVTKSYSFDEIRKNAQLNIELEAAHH

Structure (SMILES)	inhibition at 1 µM [1, 3]	IC50 [1]	viability at 1.667 µM [2]	inhibition at 1 µM [1]
CCCc1nc(-c2ccc(Cl)cc2)nc2cc(C(=O)NCc3ccc4nccn4c3)ccc12 [Compound I-8, 2-(4-chlorophenyl)-N-(imidazo[1,2-a]pyridin-6-ylmethyl)-4-propylquinazoline-7-carboxamide]	98%	< 0.01 µM	1%	
CCCc1nc(-c2ccc(Cl)cc2)nc2cc(C(=O)NCc3nc4ccncc4[nH]3)ccc12 [Compound I-9, 2-(4-chlorophenyl)-N-(3H-imidazo[4,5-c]pyridin-2-ylmethyl)-4-propylquinazoline-7-carboxamide]	93%	< 0.01 µM	1%	
COc1nc(-c2ccc(Cl)cc2)nc2cc(C(=O)NCCCc3ncc[nH]3)ccc12 [Compound I-10, 2-(4-chlorophenyl)-N-[3-(1H-imidazol-2-yl)propyl]-4-methoxyquinazoline-7-carboxamide]	100%	< 0.01 µM	1%	
CCOc1cc(-c2cc(Cl)ccc2F)nc2cc(C(=O)NCCCc3ncc[nH]3)ccc12 [Compound I-11, 2-(5-chloro-2-fluorophenyl)-4-ethoxy-N-[3-(1H-imidazol-2-yl)propyl]quinoline-7-carboxamide]	> 99%	< 0.01 µM	1%	
CCOc1cc(-c2cc(OC)ncc2F)nc2cc(C(=O)NCCCc3ncc[nH]3)ccc12 [Compound I-12, 4-ethoxy-2-(5-fluoro-2-methoxypyridin-4-yl)-N-[3-(1H-imidazol-2-yl)propyl]quinoline-7-carboxamide]	> 99%	< 0.01 µM	1%	
CCOc1cc(-c2ccc(Cl)cc2)nc2cc(C(=O)NCCCc3ncc[nH]3)ccc12 [Compound I-13, 2-(4-chlorophenyl)-4-ethoxy-N-[3-(1H-imidazol-2-yl)propyl]quinoline-7-carboxamide]		< 0.01 µM	0%	> 99%
CCOc1cc(-c2ccc(F)cc2)nc2cc(C(=O)NCc3nc4cnccc4[nH]3)ccc12 [Compound I-14, 4-ethoxy-2-(4-fluorophenyl)-N-(1H-imidazo[4,5-c]pyridin-2-ylmethyl)quinoline-7-carboxamide]	> 99%	< 0.01 µM	1%	
CCOc1cc(-c2ccc(F)cc2)nc2cc(C(=O)NCCCc3ncc[nH]3)ccc12 [Compound I-15, 4-ethoxy-2-(4-fluorophenyl)-N-[3-(1H-imidazol-2-yl)propyl]quinoline-7-carboxamide]	> 99%	< 0.01 µM	2%	
CCCc1nc(-c2ccc(F)cc2)nc2cc(C(=O)NCCCc3ncc[nH]3)ccc12 [Compound I-16, 2-(4-fluorophenyl)-N-[3-(1H-imidazol-2-yl)propyl]-4-propylquinazoline-7-carboxamide]	100%	< 0.01 µM	0%	
CC(C)Oc1cc(-c2ccc(F)cc2)nc2cc(C(=O)NCCCc3ncc[nH]3)ccc12 [Compound I-17, 2-(4-fluorophenyl)-N-[3-(1H-imidazol-2-yl)propyl]-4-isopropoxyquinoline-7-carboxamide]	99%	< 0.01 µM	0%	
CCOc1nc(-c2ccc(F)cc2)nc2cc(C(=O)NCC(C)Cc3ncc[nH]3)ccc12 (stereo not drawn) [Compound I-18, 4-ethoxy-2-(4-fluorophenyl)-N-[3-(1H-imidazol-2-yl)-2-methylpropyl]quinazoline-7-carboxamide]	99%	0.01 to 0.05 µM	0%	
CCOc1nc(-c2ccc(F)cc2)nc2cc(C(=O)NCCCc3cncnc3)ccc12 [Compound I-19, 4-ethoxy-2-(4-fluorophenyl)-N-[3-(pyrimidin-5-yl)propyl]quinazoline-7-carboxamide]	> 99%	< 0.01 µM	1%	
CCOCc1nc(-c2ccc(Cl)cc2)nc2cc(C(=O)NCCCc3ncc[nH]3)ccc12 [Compound I-20, 2-(4-chlorophenyl)-4-(ethoxymethyl)-N-[3-(1H-imidazol-2-yl)propyl]quinazoline-7-carboxamide]	98%	0.01 to 0.05 µM	1%	
CC(C)Cc1nc(-c2ccc(Cl)cc2)nc2cc(C(=O)NCCCc3ncc[nH]3)ccc12 [Compound I-21, 2-(4-chlorophenyl)-N-[3-(1H-imidazol-2-yl)propyl]-4-isobutylquinazoline-7-carboxamide]	99%	0.01 to 0.05 µM	0%	
CCc1nc(-c2ccc(Cl)s2)nc2cc(C(=O)NCCCc3ncc[nH]3)ccc12 [Compound I-22, 2-(5-chloro-2-thienyl)-4-ethyl-N-[3-(1H-imidazol-2-yl)propyl]quinazoline-7-carboxamide]	> 99%	0.01 to 0.05 µM	1%	
CC(C)Cc1nc(-c2ccc(Cl)s2)nc2cc(C(=O)NCCCc3ncc[nH]3)ccc12 [Compound I-23, 2-(5-chloro-2-thienyl)-N-[3-(1H-imidazol-2-yl)propyl]-4-isobutylquinazoline-7-carboxamide]	> 99%	0.01 to 0.05 µM	1%	
CCCc1nc(-c2ccc(Cl)s2)nc2cc(C(=O)NCCCc3ncc[nH]3)ccc12 [Compound I-24, 2-(5-chloro-2-thienyl)-N-[3-(1H-imidazol-2-yl)propyl]-4-propylquinazoline-7-carboxamide]	> 99%	< 0.01 µM	1%	
COCc1nc(-c2ccc(Cl)cc2)nc2cc(C(=O)NCCCc3ncc[nH]3)ccc12 [Compound I-25, 2-(4-chlorophenyl)-N-[3-(1H-imidazol-2-yl)propyl]-4-(methoxymethyl)quinazoline-7-carboxamide]		< 0.01 µM	0%	99%
O=C(NCCCc1ncc[nH]1)c1ccc2c(CN3CCSCC3)nc(-c3ccc(Cl)cc3)nc2c1 [Compound I-26, 2-(4-chlorophenyl)-N-[3-(1H-imidazol-2-yl)propyl]-4-(thiomorpholin-4-ylmethyl)quinazoline-7-carboxamide]	89%	> 0.1 µM	1%	
CCSc1nc(-c2ccc(F)cc2)nc2cc(C(=O)NCCCc3ncc[nH]3)ccc12 [Compound I-27, 4-(ethylsulfanyl)-2-(4-fluorophenyl)-N-[3-(1H-imidazol-2-yl)propyl]quinazoline-7-carboxamide]		< 0.01 µM	1%	98%
